Data on two compounds can be found in publication PMC7403315, “Cyclic peptide FXII inhibitor provides safe anticoagulation in a thrombosis model and in artificial lungs” (Nature Communications, 2020).

Read-outs that look alike come from different tables or passages of the source. Starred links: 1 amine or outer side, 2 acyl side, 3 side chain; linkers in the order of their positions; H or OH if unused. Positions of bridges follow the written chain, without caps; N, C: chain ends. Non-standard residues stand in square brackets, D forms with d. Residues, ends and D or L forms follow the SMILES beside them. TATA = O=C(CC[*:1])N1CN(C(=O)CC[*:2])CN(C(=O)CC[*:3])C1; Phe(4-F) = N[C@@H](Cc1ccc(F)cc1)C(=O)O; β3hR = N=C(N)NCCC[C@H](N)CC(=O)O

The assay addresses T1, recombinant pig FXIIa (Sus scrofa, UniProt O97507).
T1 construct: of FXII into a heavy chain (HC) and a light chain (LC); made in house; host or cells: CHO cells
T1 sequence (O97507 20-616): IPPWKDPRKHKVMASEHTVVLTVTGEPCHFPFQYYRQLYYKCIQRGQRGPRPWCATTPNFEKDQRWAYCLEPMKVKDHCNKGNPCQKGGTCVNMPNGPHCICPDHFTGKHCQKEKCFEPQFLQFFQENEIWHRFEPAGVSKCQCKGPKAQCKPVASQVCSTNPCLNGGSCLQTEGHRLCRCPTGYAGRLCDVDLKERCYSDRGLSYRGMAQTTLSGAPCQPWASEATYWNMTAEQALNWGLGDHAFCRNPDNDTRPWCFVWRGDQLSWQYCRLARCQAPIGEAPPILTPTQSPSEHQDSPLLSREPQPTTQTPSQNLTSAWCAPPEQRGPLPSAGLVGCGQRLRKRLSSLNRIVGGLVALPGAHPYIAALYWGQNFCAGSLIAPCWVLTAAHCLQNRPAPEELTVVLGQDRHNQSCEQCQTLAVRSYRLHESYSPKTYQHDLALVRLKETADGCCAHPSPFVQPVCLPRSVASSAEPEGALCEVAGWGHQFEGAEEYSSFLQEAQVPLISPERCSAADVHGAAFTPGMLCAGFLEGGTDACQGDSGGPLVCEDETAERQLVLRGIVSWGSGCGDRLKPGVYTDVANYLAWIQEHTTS
In words: Inhibition of recombinant FXIIa (rFXIIa). It is filed as biochemical. From the text:
The protein sequences for human, rabbit and pig factor XII were taken from the following database entries: human FXII: UniProtKB - P00748; rabbit FXII: NCBI RefSeq - XP_008253687.1; pig FXII: UniProtKB - O97507. The sequences are shown in the Supplementary Methods. DNA encoding the full-length proteins were ordered from Eurofins Genomics. The codons in these sequences were optimized for mammalian expression using the codon optimization tool from Integrated DNA Technologies (IDT). In addition to the FXII gene, the ordered DNA sequences encode a C-terminal GSGS-linker, a His6-tag and a stop codon, and they are flanked by NheI (GCTAGC) and a HindIII (AAGCTT) restriction sites. The entire DNA sequences are provided in the supporting materials. The DNA sequences were cloned into the pEXPR-IBA42 vector downstream of a BM40 signal sequence for secreted expression in mammalian cells. The ligated vector was transformed into DH5 alpha electrocompetent E. coli cells. Plasmid DNA from single clones was sequenced by Sanger sequencing.
1.5 mg plasmid DNA was transfected into 500 ml CHO cells (Thermo Fisher Scientific) in cell suspension culture using polyethylenimine (PEI). Cells were incubated for seven days at 37 °C, 5% CO2 under shaking conditions. The cells were removed by centrifugation and the secreted protein was purified from the supernatant using a nickel-charged immobilized metal affinity chromatography (IMAC) column (5 ml HisTrap FF Crude, GE Healthcare). The column was equilibrated with buffer containing 15 mM imidazole, 100 mM NaCl, 20 mM Tris-HCl, pH 7.4. The pH of the cell culture supernatant was adjusted to 8.0 using NaOH. The supernatant was run through the column at a flow of 5 ml per min. The column was washed with 20 column volumes of equilibration buffer at a flow of 5 ml per min. The protein was eluted with 500 mM imidazole, 100 mM NaCl, 20 mM Tris-HCl, pH 7.4 at a flow of 5 ml per min. The buffer was subsequently exchanged to 100 mM NaCl, 20 mM Tris-HCl, pH 7.4 by three iterative steps of 10-fold dilution and 10-fold concentration using a 10,000 MWCO centrifugal concentrator. The concentration was determined by measuring absorption at 280 nm (ε = 100,000). For the activation of recombinant FXII, 10 μg protein was diluted to a total volume of 10 μl 100 mM NaCl, 20 mM Tris-HCl, pH 7.4 and further diluted with 10 μl of 2-fold concentrated assay buffer (300 mM NaCl, 20 mM MgCl2, 2 mM CaCl2, 20 mM Tris-HCl, 0.02% (v/v) Triton-X100, pH 7.4). Dextran sulfate 500 kDa (DXS500) was added to a final concentration of 0.2 μg μl^−1 and incubated for 1 hour at 37 °C. 5 μg protein was analyzed by SDS-PAGE under reducing conditions.
Protease inhibition assays
The inhibitory activity of peptides was determined by measuring the residual protease activity with a fluorogenic substrate. The assay was performed in buffer containing 10 mM Tris-Cl, pH […]
1% (v/v) DMSO in a volume of 150 µl. FXIIa activity was measured with the fluorogenic substrate Boc-Gln-Gly-Arg-AMC (Bachem) at a final concentration of 50 µM. Mouse α-FXIIa (Molecular Innovations cat # MFXIIA) and human β-FXIIa (Molecular Innovations cat # HFXIIAB) were used at final concentrations of 0.4 nM. The reaction was pipetted as follows: 50 µl of bicyclic peptide in assay buffer were added to 50 µl of FXIIa in assay buffer and incubated for 10 minutes at 25°C before 50 µl of 150 µM fluorogenic substrate in assay buffer were added to measure the residual protease activity with an Infinite M200Pro fluorescence plate reader (excitation at 368 nm, emission at 467 nm; Tecan) for a period of 30 minutes with a read every minute at 25°C. The Tecan software i-control (version 1.1) was used for data analysis. Stock solutions of 1 mM bicyclic peptide were prepared by either dissolving the unpurified cyclization reaction with water or by dissolving purified and lyophilized peptide in water. The bicyclic peptides were serially diluted two-fold using assay buffer. Sigmoidal curves were fitted to the […]

Consider `CC(C)C[C@@H]1NC(=O)[C@H](CCC(N)=O)NC(=O)[C@H](CCCNC(=N)N)NC(=O)[C@@H]2CSCCC(=O)N3CN(CN(C3)C(=O)CCSC[C@H](NC(=O)[C@@H](N)CCCNC(=N)N)C(=O)N[C@@H](Cc3ccccc3)C(=O)N[C@@H](CCCNC(=N)N)C(=O)N[C@@H](CC(C)C)C(=O)N3CCC[C@H]3C(=O)N2)C(=O)CCSC[C@@H](C(=O)N[C@@H](CCCNC(=N)N)C(N)=O)NC(=O)[C@H](CCCNC(=N)N)NC1=O` [FXII618], for which the remaining activity at 0.00195312 µM (Recombinant pig FXII, peptide 1.95312 nM, individual plates, read-out: Residual activity (%)) was 102%. For the same compound, the remaining activity at 0.00390625 µM (Recombinant pig FXII, peptide 3.90625 nM, individual plates, read-out: Residual activity (%)) is 103%. Moreover, where the note is “Recombinant pig FXII, peptide 7.8125 nM, individual plates, read-out: Residual activity (%)”, the remaining activity at 0.0078125 µM was determined as 95.8%. Besides, where the note is “Recombinant pig FXII, peptide 15.625 nM, individual plates, read-out: Residual activity (%)”, the remaining activity at 0.015625 µM worked out at 92.8%. Further, the remaining activity at 0.03125 µM (Recombinant pig FXII, peptide 31.25 nM, individual plates, read-out: Residual activity (%)) was found to be 87.6%. In addition, the remaining activity at 0.0625 µM (Recombinant pig FXII, peptide 62.5 nM, individual plates, read-out: Residual activity (%)) turned out to be 82.2%. Besides, under “Recombinant pig FXII, peptide 125 nM, individual plates, read-out: Residual activity (%)”, the remaining activity at 0.125 µM is 71%. Further, the remaining activity at […] (Recombinant pig FXII, peptide 250 nM, individual plates, read-out: Residual activity (%)) amounted to 54.9%. Also, for the setting “Recombinant pig FXII, peptide 500 nM, individual plates, read-out: Residual activity (%)”, the remaining activity at 0.5 µM was determined as 38%. The remaining activity at 1 µM (Recombinant pig FXII, peptide 1000 nM, individual plates, read-out: Residual activity (%)) is 21.5%. In addition, the remaining activity at 2 µM (Recombinant pig FXII, peptide 2000 nM, individual plates, read-out: Residual activity (%)) was 14.6%.
In general, Ki refers to a dissociation constant, usually derived from enzyme kinetics or from competition with a known ligand. On to `CC(C)C[C@@H]1NC(=O)[C@H](CCC(N)=O)NC(=O)[C@H](Cc2c[nH]cn2)NC(=O)[C@@H]2CSCCC(=O)N3CN(CN(C3)C(=O)CCSC[C@H](NC(=O)[C@@H](CO)NC(=O)[C@H](N)CCCNC(=N)N)C(=O)N[C@@H](Cc3ccc(F)cc3)C(=O)N[C@@H](CCCNC(=N)N)C(=O)N[C@@H](CC(C)C)C(=O)N3CCC[C@H]3C(=O)N2)C(=O)CCSC[C@@H](C(N)=O)NC(=O)C[C@H](CCCNC(=N)N)NC1=O` [FXII900] (H-[dR][dS]C[Phe(4-F)]RLPCHQL[β3hR]C-NH2; linker 3-8-13 via TATA), for which the inhibitory constant (Ki) is 0.0174 ± 0.0014 µM. Further, the remaining activity at 0.0005 µM (read-out: Residual activity (%), Recombinant pig FXII, peptide 0.5 nM, individual plates) came out at 99.6%. The remaining activity at 0.001 µM (read-out: Residual activity (%), Recombinant pig FXII, peptide 1 nM, individual plates) came to 93.5%. Also, the remaining activity at 0.002 µM (read-out: Residual activity (%), Recombinant pig FXII, peptide 2 nM, individual plates) amounted to 91.1%. Besides, the remaining activity at 0.004 µM (read-out: Residual activity (%), Recombinant pig FXII, peptide 4 nM, individual plates) was 83.3%. For the same compound, the remaining activity at 0.008 µM (read-out: Residual activity (%), Recombinant pig FXII, peptide 8 nM, individual plates) worked out at 71.6%. In addition, the remaining activity at […] (read-out: Residual activity (%), Recombinant pig FXII, peptide 16 nM, individual plates) stood at 55.5%. The remaining activity at […] (read-out: Residual activity (%), Recombinant pig FXII, peptide 32 nM, individual plates) was determined as 38.2%. Moreover, the remaining activity at 0.064 µM (read-out: Residual activity (%), Recombinant pig FXII, peptide 64 nM, individual plates) is 23.5%. For the same compound, the remaining activity at 0.128 µM (read-out: Residual activity (%), Recombinant pig FXII, peptide 128 nM, individual plates) came out at 11.5%. Besides, where the note is “read-out: Residual activity (%), Recombinant pig FXII, peptide 256 nM, individual plates”, the remaining activity at 0.256 µM worked out at 7.16%. Further, the remaining activity at 0.512 µM (read-out: Residual activity (%), Recombinant pig FXII, peptide 512 nM, individual plates) was determined as 5.15%.
